# Measurements: patent publication US10800770B1, “Chroman derivatives having estrogen receptor degradation activity and uses thereof” (ACCUTAR BIOTECHNOLOGY INC., priority 2019, dated 2020)
# Target: T1, ERα (Homo sapiens, UniProt P03372)
# T1 construct: endogenous in cells; host or cells: T47D
# T1 sequence (P03372 1-595): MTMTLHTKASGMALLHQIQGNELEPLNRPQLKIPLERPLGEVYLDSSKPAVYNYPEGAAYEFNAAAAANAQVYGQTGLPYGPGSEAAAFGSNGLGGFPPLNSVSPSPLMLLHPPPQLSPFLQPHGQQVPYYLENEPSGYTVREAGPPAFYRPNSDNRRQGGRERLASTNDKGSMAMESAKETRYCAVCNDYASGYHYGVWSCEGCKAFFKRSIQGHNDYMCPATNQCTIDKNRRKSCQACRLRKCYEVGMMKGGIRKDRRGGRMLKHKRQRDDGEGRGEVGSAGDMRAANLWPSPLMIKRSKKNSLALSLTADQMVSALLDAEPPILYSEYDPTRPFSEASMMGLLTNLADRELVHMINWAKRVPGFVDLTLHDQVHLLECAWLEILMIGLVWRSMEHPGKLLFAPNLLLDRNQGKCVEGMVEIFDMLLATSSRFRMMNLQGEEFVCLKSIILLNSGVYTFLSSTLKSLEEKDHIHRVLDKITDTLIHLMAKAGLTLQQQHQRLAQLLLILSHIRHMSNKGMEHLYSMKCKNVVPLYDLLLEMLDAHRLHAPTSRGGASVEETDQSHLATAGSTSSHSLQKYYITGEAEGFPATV
# Test: ERα degradative activity in T47D cells (Western blot, 6 hours after administration)
# Assay type: cell-based
# Conditions: T47D cell line, ERα degradation
# Method: T47D cells were plated in 24-well plates at 1.5×10^5 cells/well in the RPMI growth medium containing 10% FBS and 1× Penicillin Streptomycin. MCF7 cells were plated in 24-well plates at 1.5×10^5 cells/well in the DMEM growth medium containing 10% FBS and 1× Penicillin Streptomycin. CAMA1 cells were plated in 24-well plates at 2×10^5 cells/well in the RPMI growth medium containing 20% FBS and 1× Penicillin Streptomycin. They were then incubated at 37° C. overnight. The following day, the test compound was administered to the cells by using 1000× compound stock solution prepared in DMSO at various concentrations. After administration of the compound, the cells were then incubated at 37° C. for 6 hours.
# Upon completion, the cells were washed with PBS and protein was collected in Laemmli sample buffer (1×; VWR International). Proteins in cell lysate were separated by SDS-PAGE and transferred to Odyssey nitrocellulose membranes (Licor) with Iblot® dry blotting transfer system (ThermoFisher). Nonspecific binding was blocked by incubating membranes with Intercept Blocking Buffer (Licor) for 1 hour at room temperature with gentle shaking. The membranes were then incubated overnight at 4° C. with Primary antibodies rabbit anti-ER (Cell Signaling, 8644) and mouse anti-GAPDH (1:5,000, Santa Cruz Biotechnology, sc-47724) diluted in Intercept Blocking Buffer containing 0.1% Tween 20. After washing 3 times with TBS-T, the membranes were incubated with IRDye® 800CW goat anti-mouse IgG (1:20,000, Licor) or IRDye® 800CW goat anti-rabbit IgG (1:20,000, Licor) for 1 hour. After TBS-T washes, membranes were rinsed in TBS and scanned on Odyssey® CLx Imaging System (Licor). The bands were quantified using Image Studio™ Software (Licor).
row,DC50 [nM],SMILES
1,1.7,"COc1cccc([C@H]2COc3cc(O)ccc3C2c2ccc(N3CCC(CN4CCN(c5ccc6c(c5)CN([C@H]5CCC(=O)NC5=O)C6=O)CC4)CC3)cc2)c1 (relative stereo) [Compound 56, cis-(S)-3-(5-(4-((1-(4-(7-hydroxy-3-(3-methoxy-phenyl)chroman-4-yl)phenyl)piperidin-4-yl)methyl)piperazin-1-yl)-1-oxoisoindolin-2-yl)piperidine-2,6-dione]"
2,7.3,"COc1cccc([C@H]2COc3cc(O)ccc3[C@H]2c2ccc(N3CCC(CN4CCN(c5cc6c(cc5F)C(=O)N([C@H]5CCC(=O)NC5=O)C6)CC4)CC3)cc2)c1 (relative stereo) [Compound 74, cis-(S)-3-(6-fluoro-5-(4-((1-(4-(7-hydroxy-3-(3-methoxy-phenyl)chroman-4-yl)phenyl)piperidin-4-yl)methyl)piperazin-1-yl)-1-oxoisoindolin-2-yl)piperidine-2,6-dione]"
3,9.6,"COc1ccc(C2COc3cc(O)ccc3[C@H]2c2ccc(N3CCC(CN4CCN(c5cc6c(cc5F)C(=O)N([C@H]5CCC(=O)NC5=O)C6)CC4)CC3)cc2)cc1 (relative stereo) [Compound 90, cis-(S)-3-(6-fluoro-5-(4-((1-(4-(7-hydroxy-3-(4-methoxy-phenyl)chroman-4-yl)phenyl)piperidin-4-yl)methyl)piperazin-1-yl)-1-oxoisoindolin-2-yl)piperidine-2,6-dione]"
4,12.6,"O=C1CC[C@H](N2C(=O)c3ccc(N4CCN(CC5CCN(c6ccc([C@@H]7c8ccc(O)cc8OCC7c7ccccc7)cc6F)CC5)CC4)cc3C2=O)C(=O)N1 (stereo in doubt) [Compound 87, cis-2-(2,6-dioxo-piperidin-3-yl)-5-(4-((1-(2-fluoro-4-(7-hydroxy-3-phenylchroman-4-yl)phenyl)piperidin-4-yl)methyl)piperazin-1-yl)isoindoline-1,3-dione]"
5,> 100,"O=C1CC[C@H](N2Cc3cc(N4CCN(CC5CCN(c6ccc([C@H]7c8ccc(O)cc8OC[C@H]7c7ccccc7)cc6)CC5)CC4)ccc3C2=O)C(=O)N1 [Compound 34, (S)-3-(5-(4-((1-(4-((3R,4S)-7-hydroxy-3-phenylchroman-4-yl)phenyl)piperidin-4-yl)methyl)piperazin-1-yl)-1-oxoisoindolin-2-yl)piperidine-2,6-dione]"
6,0.5,"O=C1CC[C@H](N2Cc3cc(N4CCN(CC5CCN(c6ccc([C@@H]7c8ccc(O)cc8OC[C@@H]7c7ccccc7)cc6F)CC5)CC4)ccc3C2=O)C(=O)N1 [Compound 86, (S)-3-(5-(4-((1-(2-fluoro-4-((3S,4R)-7-hydroxy-3-phenylchroman-4-yl)phenyl)piperidin-4-yl)methyl)piperazin-1-yl)-1-oxoisoindolin-2-yl)piperidine-2,6-dione]"

# Second part, the compound before the results:
row,SMILES,DC50 [nM]
1,"O=C1CC[C@H](N2Cc3cc(N4CCN(CC5CCN(c6ccc(C7c8ccc(O)cc8OC[C@@H]7c7ccccc7)cc6)CC5)CC4)ccc3C2=O)C(=O)N1 (relative stereo) [Compound 32, cis-(S)-3-(5-(4-((1-(4-(7-hydroxy-3-phenylchroman-4-yl)phenyl)piperidin-4-yl)methyl)piperazin-1-yl)-1-oxoisoindolin-2-yl)piperidine-2,6-dione]",2.4
2,"Cc1cccc([C@H]2COc3cc(O)ccc3C2c2ccc(N3CCC(CN4CCN(c5ccc6c(c5)CN([C@H]5CCC(=O)NC5=O)C6=O)CC4)CC3)c(F)c2)c1 (relative stereo) [Compound 52, cis-(S)-3-(5-(4-((1-(2-fluoro-4-(7-hydroxy-3-(m-tolyl)chroman-4-yl)phenyl)piperidin-4-yl)methyl)piperazin-1-yl)-1-oxoisoindolin-2-yl)piperidine-2,6-dione]",5.6
3,"COc1cc([C@H]2COc3cc(O)ccc3[C@H]2c2ccc(N3CCC(CN4CCN(c5ccc6c(c5)CN([C@H]5CCC(=O)NC5=O)C6=O)CC4)CC3)cc2)ccc1F (relative stereo) [Compound 63, cis-(S)-3-(5-(4-((1-(4-(3-(4-fluoro-3-methoxyphenyl)-7-hydroxychroman-4-yl)phenyl)piperidin-4-yl)methyl)piperazin-1-yl)-1-oxoisoindolin-2-yl)piperidine-2,6-dione]",2.1
4,"O=C1CC[C@H](N2Cc3cc(N4CCN(CC5CCN(c6ccc([C@@H]7c8ccc(O)cc8OCC7c7ccc(F)c(F)c7)cc6F)CC5)CC4)ccc3C2=O)C(=O)N1 (relative stereo) [Compound 84, cis-(S)-3-(5-(4-((1-(4-(3-(3,4-difluorophenyl)-7-hydroxychroman-4-yl)-2-fluoro-phenyl)piperidin-4-yl)methyl)piperazin-1-yl)-1-oxoisoindolin-2-yl)piperidine-2,6-dione]",9.3
5,"O=C1CC[C@H](N2Cc3cc(N4CCN(CC5CCN(c6ccc([C@@H]7c8ccc(O)cc8OCC7c7ccccc7)cc6F)CC5)CC4)ccc3C2=O)C(=O)N1 (relative stereo) [Compound 85, cis-(S)-3-(5-(4-((1-(2-fluoro-4-(7-hydroxy-3-phenylchroman-4-yl)phenyl)piperidin-4-yl)methyl)piperazin-1-yl)-1-oxoisoindolin-2-yl)piperidine-2,6-dione]",3
6,"COc1ccc(C2COc3cc(O)ccc3[C@H]2c2ccc(N3CCC(CN4CCN(c5ccc6c(c5)CN([C@H]5CCC(=O)NC5=O)C6=O)CC4)CC3)cc2)cc1 (relative stereo) [Compound 89, cis-(S)-3-(5-(4-((1-(4-(7-hydroxy-3-(4-methoxy-phenyl)chroman-4-yl)phenyl)piperidin-4-yl)methyl)piperazin-1-yl)-1-oxoisoindolin-2-yl)piperidine-2,6-dione]",0.7
7,"O=C1CCC(N2C(=O)c3ccc(N4CCN(CC5CCN(c6ccc(C7c8ccc(O)cc8OC[C@@H]7c7ccccc7)cc6)CC5)CC4)cc3C2=O)C(=O)N1 (stereo in doubt) [Compound 36, cis-2-(2,6-dioxopiperidin-3-yl)-5-(4-((1-(4-(7-hydroxy-3-phenylchroman-4-yl)phenyl)piperidin-4-yl)methyl)piperazin-1-yl)isoindoline-1,3-dione]",> 10
8,"O=C1CC[C@H](N2Cc3cc(N4CCN(CC5CCN(c6ccc([C@@H]7c8ccc(O)cc8OC[C@@H]7c7ccccc7)cc6)CC5)CC4)ccc3C2=O)C(=O)N1 [Compound 33, (S)-3-(5-(4-((1-(4-((3S,4R)-7-hydroxy-3-phenylchroman-4-yl)phenyl)piperidin-4-yl)methyl)piperazin-1-yl)-1-oxoisoindolin-2-yl)piperidine-2,6-dione]",0.3
9,"O=C1CC[C@H](N2Cc3cc(N4CCN(CC5CCN(c6ccc([C@@H]7c8ccc(O)cc8OC[C@@H]7c7ccccc7)cc6F)CC5)CC4)c(F)cc3C2=O)C(=O)N1 [Compound 41, (S)-3-(6-fluoro-5-(4-((1-(2-fluoro-4-((3S,4R)-7-hydroxy-3-phenylchroman-4-yl)phenyl)piperidin-4-yl)methyl)piperazin-1-yl)-1-oxoisoindolin-2-yl)piperidine-2,6-dione]",4
10,"O=C1CC[C@H](N2Cc3cc(N4CCN(CC5CCN(c6ccc([C@@H]7c8ccc(O)cc8OC[C@@H]7c7ccccc7)cc6)CC5)CC4)c(F)cc3C2=O)C(=O)N1 [Compound 42, (S)-3-(6-fluoro-5-(4-((1-(4-((3S,4R)-7-hydroxy-3-phenylchroman-4-yl)phenyl)piperidin-4-yl)methyl)piperazin-1-yl)-1-oxoisoindolin-2-yl)piperidine-2,6-dione]",1.1
11,"O=C1CC[C@H](N2Cc3cc(N4CCN(CC5CCN(c6ccc([C@H]7c8ccc(O)cc8OC[C@H]7c7ccccc7)cc6F)CC5)CC4)ccc3C2=O)C(=O)N1 [Compound 45, (S)-3-(5-(4-((1-(2-fluoro-4-((3R,4S)-7-hydroxy-3-phenylchroman-4-yl)phenyl)piperidin-4-yl)methyl)piperazin-1-yl)-1-oxoisoindolin-2-yl)piperidine-2,6-dione]",> 100
12,"Cc1cc([C@H]2COc3cc(O)ccc3[C@H]2c2ccc(N3CCC(CN4CCN(c5ccc6c(c5)CN([C@H]5CCC(=O)NC5=O)C6=O)CC4)CC3)c(F)c2)ccc1F [Compound 60, cis-(S)-3-(5-(4-((1-(2-fluoro-4-(3-(4-fluoro-3-methylphenyl)-7-hydroxychroman-4-yl)phenyl)piperidin-4-yl)methyl)piperazin-1-yl)-1-oxoisoindolin-2-yl)piperidine-2,6-dione]",6.5
